{"source": "patent US20220017468A1", "about": "“ISOQUINOLINE COMPOUNDS AND THEIR USE IN TREATING AhR IMBALANCE” (Dermavant Sciences GmbH, priority 2020, published 2022)", "key": {"[1]": {"system": "imiquimod (IMQ)-treated mouse", "test": "IMQ mouse model of psoriasis", "assay_type": "in vivo", "conditions": "for IL-17% effect vs. IMQ + SEM / IL-17F %effect vs IMQ + SEM: tissue mRNA", "protocol": "Female BALB/c mice (BALB/cByJRj) were purchased from Janvier (France). Mice are allowed to eat a normal diet AO4C from SAFE (France) and drink ad libitum. BALB/c JByRj female mice (8 week-old at study initiation) are treated with imiquimod (IMQ) cream (5%) or vanicream (non-inflammatory inert cream). For three days of pre-treatment, and then daily until the end of the study (two hours before each application of IMQ), the same skin area is treated topically with 100 μL of compound. Mice are monitored for changes in clinical symptoms over the course of the study. Affected back skin is examined by histology and qPCR for evidence of compound efficacy.\nStarting 3 days after first treatment, IMQ cream was applied daily for 4 (StudyA) or 10 days (Study B). Clinical scoring was monitored daily (FIG. 5A, FIG. 5B). At the end of the study, treated skin was evaluated by histology and qPCR for induced cytokine gene expression.\nOn days 0, 1, 2, 3: visual evaluation of the skin and psoriasis clinical scorewere noted.\nPsoriasis reactions (erythema and plaques) are reported according to a 0-4 scale in ascending order of severity as shown below and results are shown in FIG. 5A1.\nOn the last day of treatment, a 6 mm punch of skin in the treated area is collected on a aluminium sheet (to keep the skin flattened) and placed into a tube containing Formalin solution (Neutral Buffered 10% (SIGMA HT501320-9 5L)) for histological analysis (FIG. 5A2).\nOn days 0, 1, 2, 3, 4, 5, 6, 7,8, 9: visual evaluation of the skin and psoriasis clinical score were noted.\nPsoriasis reactions (erythema and plaques) are reported according to a 0-4 scale in ascending order of severity as shown below and results are shown in FIG. 5B1.\nOn the last day of treatment, a 6 mm punch of skin in the treated area is collected on a aluminium sheet (to keep the skin flattened) and placed into a tube containing Formalin solution (Neutral Buffered 10% (SIGMA HT501320-9 5L)) for histological analysis (FIG. 5B2)."}, "[2]": {"system": "dinitrofluorobenzene (DNFB)-challenged mouse", "test": "DNFB mouse model", "assay_type": "in vivo", "conditions": "0.3% in ethanolic formulation, twice daily", "from_the_text": "DNFB is a small chemical hapten that induces a delayed-type hypersensitivity reaction with some similarity to human atopic dermatitis. […] This may indicate reduced exposure to the compound in the second study, although additional data would be required to understand whether this discrepancy results from different dosing strategies (q.d. vs b.i.d.), limitations of cream formulation 1, or another reason.\nHealthy female CD1 mice (Crl:CD1(ICR)) were shaved on the abdomen and the nape of the neck under a 3 to 5% isoflurane anesthesia.\nAfter body weight measurement, animals were allocated to study groups, according to the treatment table below. The study was divided in two arms, separated by 1 week, in order to accommodate for the in life monitoring of scratching monitoring. Half of the animals from each group (6 mice) were allocated in arm 1 and arm 2 respectively.\nFor each topical treatment, 100 mg of cream or 100 μL of liquid formulation were applied on the mouse nape of the neck skin using a solvent pipette. When creams were used, they were spread with a finger and allowed to penetrate the skin by massage until complete absorption. […]\nMice were culled on Day 17 under a 3 to 5% isoflurane anesthesia, 4 hours after the last topical treatment, and 48 hours after the last DNFB or acetone/olive oil challenge. […] Epidermal (FIG. 6C1) and dermal thickness (FIG. 6C2) were measured."}, "[3]": {"test": "metabolic stability in hepatocytes, rat", "assay_type": "in vitro ADME"}, "[4]": {"test": "metabolic stability in hepatocytes, rabbit", "assay_type": "in vitro ADME"}, "[5]": {"test": "blood-to-plasma ratio and blood cell association, human", "assay_type": "in vitro ADME"}, "[6]": {"test": "metabolic stability in liver microsomes, rat", "assay_type": "in vitro ADME"}, "[7]": {"system": "human primary keratinocytes", "test": "keratinocyte viability", "assay_type": "cell-based", "conditions": "48 h, two days", "from_the_text": "Points represent percent maximum expression of protein compared to Th17 from six combined donors; 3 biological replicates per treatment. Error bars represent standard error of mean. […] Data are mean±standard error from 3 to 9 experimental data points. […] Error bars represent mean ±standard error of 10-15 biological replicates."}}, "note": "Where “and” joins values, the source holds several entries; their conditions need not be identical. Equal values may be shown once. Entries after “also recorded” stand apart in the source; their conditions may differ. Read-outs that look alike come from different tables or passages of the source."}
{"smiles": "CC(C)c1c(O)cc(-c2cc3ccccc3cn2)cc1O", "values": [{"measurement": "IL-17% effect vs. IMQ + SEM", "setting": "[1]; Study A, 0.3% + IMQ", "value": "16.27 + 4.816%"}, {"measurement": "IL-17F %effect vs IMQ + SEM", "setting": "[1]; Study A, 0.3% + IMQ", "value": "22.21 + 7.418%"}, {"measurement": "IL-17% effect vs. IMQ + SEM", "setting": "[1]; Study B, 0.1% + IMQ", "value": "78.48 + 18.771%"}, {"measurement": "IL-17F %effect vs IMQ + SEM", "setting": "[1]; Study B, 0.1% + IMQ", "value": "45.23 + 9.519%"}, {"measurement": "IL-17% effect vs. IMQ + SEM", "setting": "[1]; Study B, 0.3% + IMQ", "value": "79.33 + 22.900%"}, {"measurement": "IL-17F %effect vs IMQ + SEM", "setting": "[1]; Study B, 0.3% + IMQ", "value": "60.01 + 12.229%"}, {"measurement": "clinical score", "setting": "[1]; daily topical, 60% EtOH: 40% H2O solution, vs vehicle-treated mice", "value": "reduced clinical score"}, {"measurement": "skin cytokine gene expression (IL-17A, IL-17F)", "setting": "[1]; topical, qPCR", "value": "significantly inhibited; also recorded: reduced cytokine gene expression"}, {"measurement": "epidermis thickening induced by imiquimod", "setting": "[1]; topical, skin histology", "value": "reduce the epidermis thickening; also recorded: reduced epidermal thickening"}, {"measurement": "reduction in dermal thickness", "setting": "[2]", "value": 34, "unit": "%"}, {"measurement": "reduction in epidermal thickness", "setting": "[2]", "value": 20, "unit": "%"}, {"measurement": "in vitro-to-in vivo extrapolation (IVIVE) ratio", "setting": "[3]; rat", "value": 0.45}, {"measurement": "CLint, hep", "setting": "[3]; rat hepatocytes, 0.5 μM", "value": 44.4, "unit": "mL/min/g liver"}, {"measurement": "half-life at 0.5 μM", "setting": "[3]; rat hepatocytes, 0.5 μM", "value": 3.37, "unit": "min"}, {"measurement": "CLint scaled at 0.5 μM", "setting": "[3]; rat hepatocytes, 0.5 μM, read-out: Scaled CLint, hep", "value": 1600, "unit": "mL/min/kg"}, {"measurement": "half-life at 0.5 μM", "setting": "[4]", "value": 21.3, "unit": "min"}, {"measurement": "CLint, hep", "setting": "[4]; 0.5 μM", "value": 7.80, "unit": "mL/min/g liver"}, {"measurement": "CLint scaled at 0.5 μM", "setting": "[4]; read-out: Scaled CLint, hep", "value": 240, "unit": "mL/min/kg"}, {"measurement": "% Blood Cell Association Mean (% CV)", "setting": "[5]; 1 μM", "value": "55.0 (2.39) %"}, {"measurement": "% Blood Cell Association Replicate", "setting": "[5]; 1 μM", "value": "53.9% and 56.4% and 54.6%"}, {"measurement": "Blood-to-plasma Ratio Replicate", "setting": "[5]; 1 μM", "value": "1.29 and 1.23"}, {"measurement": "Mean % Blood Stability", "setting": "[5]; 1 μM", "value": 107, "unit": "%"}, {"measurement": "blood plasma ratio at 1 μM", "setting": "[5]; read-out: Blood-to-plasma Ratio Mean (% CV)", "value": 1.24}, {"measurement": "blood plasma ratio at 1 μM", "setting": "[5]; read-out: Blood-to-plasma Ratio Replicate", "value": 1.21}, {"measurement": "CLint, mic", "setting": "[6]; rat liver microsomes, 0.5 μM", "value": 6.21, "unit": "mL/min/g liver"}, {"measurement": "CLint scaled at 0.5 μM", "setting": "[6]; rat liver microsomes, 0.5 μM, read-out: Scaled CLint, mic", "value": 224, "unit": "mL/min/kg"}, {"measurement": "half-life at 0.5 μM", "setting": "[6]; rat, microsomes", "value": 10.3, "unit": "min"}, {"measurement": "IC50", "setting": "[7]", "value": 12.4, "unit": "µM"}]}
